Blank lines part the entries; values can stand above or below the molecule they belong to.
Key:
kynurenine-3-hydroxylase = target: T1, kynurenine-3-hydroxylase (Rattus norvegicus, UniProt O88867); assay: Kynurenine-3-hydroxylase assay in the rat brain (homogenate); format: biochemical; conditions: L-kynurenine 50 μM, 60 min incubation, pH 7.5, read-out: IC 50, enzyme inhibition (rat brain)
T1 construct: evaluated in rat brain homogenate; from tissue; host or cells: rat brain homogenate (washed 12000 x g pellet)
T1 sequence (O88867 whole entry): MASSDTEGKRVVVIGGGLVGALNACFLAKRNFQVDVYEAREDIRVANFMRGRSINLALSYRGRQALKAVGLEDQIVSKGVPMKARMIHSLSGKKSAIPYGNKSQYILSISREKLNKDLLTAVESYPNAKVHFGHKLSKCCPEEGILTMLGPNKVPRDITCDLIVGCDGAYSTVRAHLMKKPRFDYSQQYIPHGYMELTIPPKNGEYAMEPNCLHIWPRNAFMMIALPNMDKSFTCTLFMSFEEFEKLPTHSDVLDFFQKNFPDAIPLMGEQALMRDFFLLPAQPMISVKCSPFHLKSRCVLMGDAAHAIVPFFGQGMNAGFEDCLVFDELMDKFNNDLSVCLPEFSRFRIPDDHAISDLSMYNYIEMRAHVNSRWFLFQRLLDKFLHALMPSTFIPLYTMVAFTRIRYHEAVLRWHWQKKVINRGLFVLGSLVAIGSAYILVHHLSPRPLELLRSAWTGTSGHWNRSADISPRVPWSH
Procedure: (A) Kynurenine-3-hydroxylase assay in the rat brain
Brain was homogenized in ice-cold 0.32 M sucrose and centrifuged at 12000×g for 30 min at 4° C. The pellet was washed three times with 0.32 M sucrose by centrifugation and suspended in 0.14 M KCl in 20 mM K-phosphate buffer at pH 7 (1 g tissue in 2 ml buffer).
The reaction mixture contained: 75 μl of suspended homogenate; 100 μl of substrate solution containing 50 mM K-phosphate buffer pH 7.5, 2 mM MgCl2, 0.4 mM NADPH and 50 μM L-kynurenine (final concentration): 25 μl of different concentrations of inhibitor solutions). The reaction was stopped by addition of 200 μl of 1 M HClO4 after 60 min incubation. L-3-hydroxykynurenine formed was quantified by HPLC with coulometric detection at a working voltage of +0.2 V. The column was a 10 cm C18 reversed phase (3 μm. The mobile phase consisted of 950 ml distilled water, 20 ml acetonitrile, 9 ml triethylamine, 5.9 ml phosphoric acid, 100 mg sodium EDTA and 1.5 g heptanesulfonic acid. The flow rate was 1 ml/min.

[1] = test system: ionotropic excitatory aminoacid receptors; conditions: preferentially acting at the glycine co-agonist site of the NMDA receptor; cited from earlier work
neuronal cell cultures = conditions: relatively low QUIN concentrations; prolonged period of time or in combination with glutamate; cited from earlier work
[2] = cited from earlier work
[3] = test system: N-methyl-D-aspartate (NMDA) receptor; conditions: cited from earlier work

IC50 (kynurenine-3-hydroxylase): 0.14 µM
SMILES: O=C(CC(NC(=O)C(F)(F)F)C(=O)O)c1ccc(Cl)c(Cl)c1 (racemic) [FCE 29256, (R,S)-N-trifluoroacetyl-2-amino-4-oxo-4-(3',4'-dichlorophenyl)butanoic acid]

IC50 (kynurenine-3-hydroxylase): 0.27 µM
SMILES: O=C(CC(NC(=O)C(F)(F)F)C(=O)O)c1ccc(F)c(F)c1 (racemic) [FCE 29434, (R,S)-N-trifluoroacetyl-2-amino-4-oxo-4-(3',4'-difluorophenyl)butanoic acid]

IC50 (kynurenine-3-hydroxylase): 0.24 µM
SMILES: O=C(C[C@H](NC(=O)C(F)(F)F)C(=O)O)c1ccc(Cl)c(Cl)c1 [FCE 29435, (S)-N-trifluoroacetyl-2-amino-4-oxo-4-(3',4'-dichlorophenyl)butanoic acid]

Continued, molecule first:

SMILES: O=C(O)c1cc(=O)c2ccccc2[nH]1 [KYNA, kynurenic acid]
antagonism at ionotropic excitatory aminoacid receptors (in words) [1]: broad spectrum antagonist

SMILES: O=C(O)c1cccnc1C(=O)O [QUIN, quinolinic acid]
neurotoxicity in neuronal cell cultures (in words) (neuronal cell cultures): neurotoxic
effect in vivo (in words) [2]: produce convulsions and axon sparing lesions
agonism at NMDA receptor (in words) [3]: highly selective agonist

— patent US6207709A, “N-substituted-2-amino-4-phenyl-4-oxo-butanoic acid compounds having kynurenine-3-hydroxy base inhibitory activity” (Pharmacia & Upjohn S.p.A., priority 1996, dated 2001)
